Test [1] deals with yjdF wt aptamer domain (Streptococcus ratti) (RNA, riboswitch) GGUAUAAAAACACAUUGCAGUUGGUAGUCUGCAAGCAUCAUCAGAUGUCAGUAACCUUCCCUCCAAGGUCGUCCCAUACC
The test can be described thus: ligand fluorescence emission (10-fold increase, 25 nm shift). The settings on record: 100 mM K+, 5 mM Mg2+; 20 mM Mops pH 7.0, 10 μM EDTA, 50 nM ligand, 20 °C.

Test [2] has the same test system. The experiment in a line: SHAPE probing (protection of A4, A5). The following applies: 150 mM K+, 3 mM Mg2+; 20 mM MOPS-KOH pH 7.0, 10 μM EDTA, 2.5 μM ligand, 21 °C.
For test [3], the system named is yjdF wt aptamer domain (Enterococcus pallens) (RNA, riboswitch) CGAGCAUAAAAACACGAGGCGGUUGGUAGUCCGCCGCAUGAAAAUGUCAGUAGCCUUCCCUCCCGGGUCGUCCAUUGCUCG
The experiment in a line: SEC (ligand-dependent folding). The following applies: 100 mM K+, 5 mM Mg2+; 20 mM Mops pH 7.0, 10 μM EDTA; 60 nM chelerythrine in running buffer; indirect.

Test [4] has as its system yjdF wt aptamer domain (Staphylococcus aureus) (RNA, riboswitch) UAGAAGUGUAAAAACACAAUUGGGUUGGUAGUCCCAAUGCAGUUUUAAAACUGUCAGUAACCUUCCUCCUCGGGUUGUCCGUCAUUUCUA
The test can be described thus: SAXS; ribosome filter binding (ligand-dependent). The settings on record: 100 mM K+, 2.5 mM Mg2+ (SAXS); 20 mM Mops pH 7.0 (SAXS).

Test [5] relates to yjdF wt aptamer domain (Streptococcus ratti) (RNA, riboswitch) GGUAUAAAAACACAUUGCAGUUGGUAGUCUGCAAGCAUCAUCAGAUGUCAGUAACCUUCCCUCCAAGGUCGUCCCAUACC
The experiment in a line: ligand fluorescence emission (10-fold increase). The following applies: 100 mM K+, 5 mM Mg2+; 20 mM Mops pH 7.0, 10 μM EDTA, 50 nM ligand, 20 °C.

Test [6] has as its system yjdF wt aptamer domain (Staphylococcus aureus) (RNA, riboswitch) UAGAAGUGUAAAAACACAAUUGGGUUGGUAGUCCCAAUGCAGUUUUAAAACUGUCAGUAACCUUCCUCCUCGGGUUGUCCGUCAUUUCUA
The experiment in a line: ribosome filter binding (ligand-dependent). The settings on record: 100 mM NH4+, 5 mM Mg2+; 20 mM Hepes pH 7.0, 0.5 mM spermine; indirect.

For test [7], the system named is yjdF wt aptamer domain (Streptococcus ratti) (RNA, riboswitch) GGUAUAAAAACACAUUGCAGUUGGUAGUCUGCAAGCAUCAUCAGAUGUCAGUAACCUUCCCUCCAAGGUCGUCCCAUACC
The experiment in a line: ligand fluorescence titration with RNA. The settings on record: 100 mM K+, 5 mM Mg2+; 20 mM Mops pH 7.0, 10 μM EDTA, 50 nM harmine; biphasic two-site Hill fit, site not stated.

In test [8] the test system is yjdF TLC (T-loop chimera, Streptococcus ratti) (RNA, riboswitch) GGUAUAAAAACACAUUGCAGUUGGUAGUCUGCAAGCAUCAUCAGAUGUCAGUAACCGGUUCGAAUCCGGUCGUCCCAUACC
The test can be described thus: ligand fluorescence titration with RNA. The following applies: 100 mM K+, 5 mM Mg2+; 20 mM Mops pH 7.0, 10 μM EDTA, 50 nM harmine; biphasic two-site Hill fit, site not stated; nearly identical to wt.

Test [9] has as its system circΔP3 (circ∆L3) (RNA, riboswitch) GAUGUCAGUAACCUUCCCUCCAAGGUCGUCCCAUACCGUUCGCGGUAUAAAAACACAUUGCAGUUGGUAGUCUGCAAGCAUC
The experiment in a line: ligand fluorescence titration with RNA. The following applies: 100 mM K+, 5 mM Mg2+; 20 mM Mops pH 7.0, 10 μM EDTA, 50 nM harmine; biphasic two-site Hill fit, site not stated; nearly identical to wt.

Regarding `COc1ccc2c(c[n+](C)c3c4cc5c(cc4ccc23)OCO5)c1OC`, the binding entry in [1], in test [2], in [3] and in test [4] was “yes” in each case.
Consider `C[n+]1cc2c3c(ccc2c2ccc4cc5c(cc4c21)OCO5)OCO3`, for which the binding result in test [2] and in test [5] was “yes” each time.
`COc1ccc2c(c1)[nH]c1c(C)nccc12`: the binding result in test [6], in [8] and in test [9] was “yes” throughout. In [7], this compound yielded a Kd of 230 ± 30 nM.

What is called Kd is a measure of binding affinity in units of concentration.

(Values after article PMC9142559 (2022).)
